Literature values as cited in patent publication US20210128561A1, “MRGX Receptor Antagonists” (Rheinische-Friedrich-Wilhelms-Universität Bonn, priority 2019, published 2021).
Like-named read-outs stand apart in the source and are kept apart here. Ends that are not written are not given here.

Tests used:
MrgX2 [1] = target: T1, MrgX2 (Homo sapiens, UniProt Q96LB1); settings: read-out: EC50 value; calcium assays, MrgX2 activation; cited from earlier work
T1 construct: host or cells: recombinant HEK cells (A3); CHEM1 cells recombinantly expressing MrgX2 (A11)
T1 sequence (Q96LB1 1-330): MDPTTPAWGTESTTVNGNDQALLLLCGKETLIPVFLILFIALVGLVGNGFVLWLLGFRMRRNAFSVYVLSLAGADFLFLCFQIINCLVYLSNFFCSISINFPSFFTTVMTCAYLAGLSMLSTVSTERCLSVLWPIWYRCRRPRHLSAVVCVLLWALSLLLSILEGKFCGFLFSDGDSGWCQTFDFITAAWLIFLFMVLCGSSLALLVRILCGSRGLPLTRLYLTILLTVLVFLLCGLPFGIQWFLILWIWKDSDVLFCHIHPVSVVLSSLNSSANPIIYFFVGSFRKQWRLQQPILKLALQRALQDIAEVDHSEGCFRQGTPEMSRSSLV

MrgX2 [2] = target: T1, MrgX2; settings: calcium assays; cited from earlier work
MrgX2 [3] = target: T1, MrgX2; settings: versus CST-14, calcium mobilization; cited from earlier work
MrgX2 [4] = target: T1, MrgX2; settings: calcium mobilization assay; cited from earlier work
MrgX2 [5] = target: T1, MrgX2; settings: β-arrestin assay; cited from earlier work
human LAD2 mast cells = settings: cited from earlier work
[6] = system: CHEM1 cells without MrgX2 overexpression; settings: cited from earlier work
MrgX2 [7] = target: T1, MrgX2; settings: CHEM1 cell line recombinantly expressing MrgX2; cited from earlier work

## COc1ccc2c(c1)[C@@]13CCCC[C@H]1[C@@H](C2)NCC3 [3-methoxymorphinan]
MrgX2 [1]
  EC50: 4.7 µM

## C[C@@H]1C[C@H]2Cc3ncc(-c4ccc5c(n4)C[C@@H]4C[C@@H](C)C[C@]56NCCC[C@H]46)cc3[C@]3(C1)NCCC[C@H]23 [Complanadine A]
MrgX2 [2]
  EC50: 5.5 µM

## CC(=O)N1c2ccccc2Nc2ccccc21 [Compound 1, 1-(5H-10λ^2-phenazin-5-yl)ethan-lone]
MrgX2 [3]
  IC50: 1.6 µM

## CN1CC[C@]2(c3cccc(O)c3)Cc3nc4ccccc4cc3C[C@H]2C1 [TAN-67]
MrgX2 [4]
  EC50: ~1 µM
MrgX2 [5]
  EC50: ~1 µM

## O=c1c2ccccc2[nH]c(=S)n1Cc1ccccn1 [compound 2, 3-(pyridine-2-ylmethyl)-2-thioxo-2,3-dihydro-4H-1λ^2-quinazolin-4-one]
MrgX2 [3]
  IC50: 2.5 µM

## CN1CC[C@@]23CCCC[C@@H]2[C@@H]1Cc1ccc(O)cc13 [dextrorphan]
MrgX2 [1]
  EC50: 1.4 µM

## CN1CC[C@]23c4c5ccc(O)c4O[C@H]2[C@@H](O)C=C[C@H]3[C@H]1C5 [morphine]
MrgX2 [1]
  EC50: 4.5 µM

## C[C@H]1O[C@@H](O[C@H]2CC[C@@]3(C)[C@@H](CC[C@]4(C)[C@@H]3C=C[C@]35OC[C@@]6(CCC(C)(C)C[C@H]63)[C@@H](O)C[C@]54C)[C@]2(C)CO)[C@H](O)[C@@H](O[C@@H]2O[C@H](CO)[C@@H](O)[C@H](O)[C@H]2O)[C@H]1O [saikosaponin A, Saikosaponin A]
Human LAD2 mast cells; 0.50 μM saikosaponin A vs. 30 μg/mL (≈31.2 μM) compound 48/80, LAD2
  β-hexosaminidase release of substance P and saikosaponin A together: 30%

## Gln-D-Trp(Formyl-)Phe-benzylester [QWF]
Human LAD2 mast cells; 100 μM QWF vs. 1 μM substance P, LAD2
  β-hexosaminidase release of SP and QWF together: 20%

## substance P (RPKPQQFFGLM-NH2; ends and bridges not checked; UniProt P20366 58-68, looked up)
Human LAD2 mast cells; 1 μM substance P, LAD2
  β-hexosaminidase release of SP alone: 60%
Human LAD2 mast cells; saikosaponin A study, stimulus stated as 30 μg/mL compound 48/80, LAD2
  β-hexosaminidase release of substance P alone: 100%

B1: CXCL14: small chemokine (C-X-C motif) ligand 14 (protein, UniProt O95715 35-111, looked up)
C-X-C motif chemokine 14: SKCKCSRKGPKIRYSDVKKLEMKPKYPHCEEKMVIITTKSVSRYRGQEHCLHPKLQSTKRFIKWYNAWNEKRRVYEE
[6]
  calcium release: not to mediate calcium release
MrgX2 [7]
  EC50: 0.57 µM
